Measurements from article PMC9587079, “Bioavailability of inhaled or ingested PFOA adsorbed to house dust” (Environmental Science and Pollution Research International, 2022).
“Also recorded” adds a separate entry of the source.

Assays:
[1] = cited from earlier work
[2] = set-up: method as in Hinderliter et al. [2006]; settings: ref Hinderliter et al. [2006], cited from earlier work
[3] = Vapor concentration of PFOA at outlet of vapor generation chamber; type: physicochemical; settings: room temperature, after 24 h
Protocol: The gas phase of PFOA was collected with OSHA Versatile Sampling (OVS) tubes with XAD-2 resin (SKC). Samples were collected at a flowrate of 0.04 L/min using vacuum sampling pumps. Collection times were set for 5 min typically for a 200 mL air sample. PFOA from the OVS sampler was extracted prior to analysis into two fractions with each fraction placed into individual PP tubes. Fraction A consisted of the glass or quartz fiber filter and first section of XAD resin beads and the first polyurethane foam (PUF) filter. Fraction B consisted of the second section of XAD resin beads and the back PUF filter. All samples were spiked with 50 μL of 1 μg/mL C13 solution, the surrogate standard. Each section was placed in PP tube to which 5 mL of HPLC-grade methanol was added. The tube was shaken for 60 min on a mechanical flatbed shaker set at ∼2 cycles per second. Approximately 4.5 mL of each extract was transferred to a pre-baked amber glass vial by filtering through a Gelman GHP Acrodisc (Pall Gelman Laboratory, Ann Arbor, MI, USA.). Each extract of consisting of 200 μL was transferred to an autosampler vial with PP insert. […]
The vapor concentration of PFOA (Cpfoa) measured at the outlet of the vapor pressure generation chamber is described in detail in Supplementary Information and shown in Fig. S1. […]

[4] = Sorption of PFOA on house dust in near saturated vapor; type: physicochemical; settings: more than 3 weeks
Protocol: To achieve a sufficient concentration of PFOA on the house dust, a saturated vapor concentration procedure was created to adsorb/absorb PFOA on the house dust. This was done to ensure detectability in the tissue samples. Ten grams of solid pure perfluorooctanoic acid was placed in a glass jar bottle, capped with a lid, shaken and stored at room temperature (25 ± 0.1 °C) to allow vaporization and pre-equilibration of PFOA on the walls of the glass jars. Following equilibration of PFOA in the air and on walls of jars, a portion of 5 ± 0.03 g dust was placed in a polypropylene (PP) round plate inside each of four jars. These were capped and kept under the controlled room temperature and atmospheric pressure over time, mimicking a residential indoor environment, but with a saturated vapor of PFOA. Repeated samples of dust were withdrawn from the jars over time and analyzed for the PFOA content. This procedure was repeated over time for up to 6 weeks until a stable equilibrium concentration of PFOA was attained adsorbed to the dust. […]
During the adsorption process, the concentration of PFOA adsorbed to the dust was periodically measured after a rotatory mixing of dust samples with a tube rotator or 24 h prior to the extraction procedures and instrumental analysis. […]

[5] = PFOA in plasma over time after inhalation or gavage of PFOA-coated house dust; type: in vivo, rat; settings: for Cmax: male, RccHan:WIST, rat, plasma

O=C(O)C(F)(F)C(F)(F)C(F)(F)C(F)(F)C(F)(F)C(F)(F)C(F)(F)F [PFOA, Perfluorooctanoic acid]
Absorption over the gastrointestinal tract ([1]; oral exposure in animal studies, ammonium salt: APFO, ref DeWitt. [2015]): virtually all of it was absorbed | Delivered dose absorbed over the gastro intestinal ([1]; oral exposure, ref US EPA [2016], Pizzurro et al. [2019], DeWitt. [2015]): more than 90% | Concentration of PFOA in plasma ([2]; 6-h inhalation exposure, 1–25 mg/m^3 aerosolized solution): 1000 to 25000 ng/mL | Plasma level in male compared to females ([2]; end of the 6-h exposure time): almost twice as high | Stable (saturation) vapor concentration of PFOA [3]: 1.37e-05 µg/L | Steady state concentration of PFOA on house dust [4]: 0.335 g/g coated dust | Cmax ([5]; inhaled or intranasal, inhalation group, n = 4, 164 μg PFOA/kg BW): 3100 ± 320 ng/mL | Cmax ([5]; oral gavage group, n = 4, 364 μg PFOA/kg BW): 1730 ± 170 ng/mL | Time of Cmax post exposure ([5]; oral gavage group): 3 h | Plasma PFOA (Cmax, 3 h) following inhalation compared to oral exposure ([5]; same deposition level of exposure): almost four times higher; also recorded: approximately four times higher
